According to patent US5597832A (Abbott Laboratories, priority 1994, dated 1997):
“Also recorded” adds a separate entry of the source. Counter-ions that a name gives are not always drawn. Like-named read-outs stand apart in the source and are kept apart here.

Key:
D-1 receptor = assay: Adenylate cyclase assay (agonist activity, cAMP); format: biochemical, goldfish retina or rat striatum
dopamine D-2 receptor = molecular target: T1, dopamine D-2 receptor (Rattus norvegicus, UniProt P61169); assay: D-2 receptor competitive binding, [3H]-spiroperidol, homogenized rat caudate; details: rat caudate, [3H]-spiroperidol; read-out: D-2 Ki
T1 construct: Homogenized rat caudate was the source of the D-2 receptors; from tissue; host or cells: rat caudate homogenate
T1 sequence (P61169 whole entry): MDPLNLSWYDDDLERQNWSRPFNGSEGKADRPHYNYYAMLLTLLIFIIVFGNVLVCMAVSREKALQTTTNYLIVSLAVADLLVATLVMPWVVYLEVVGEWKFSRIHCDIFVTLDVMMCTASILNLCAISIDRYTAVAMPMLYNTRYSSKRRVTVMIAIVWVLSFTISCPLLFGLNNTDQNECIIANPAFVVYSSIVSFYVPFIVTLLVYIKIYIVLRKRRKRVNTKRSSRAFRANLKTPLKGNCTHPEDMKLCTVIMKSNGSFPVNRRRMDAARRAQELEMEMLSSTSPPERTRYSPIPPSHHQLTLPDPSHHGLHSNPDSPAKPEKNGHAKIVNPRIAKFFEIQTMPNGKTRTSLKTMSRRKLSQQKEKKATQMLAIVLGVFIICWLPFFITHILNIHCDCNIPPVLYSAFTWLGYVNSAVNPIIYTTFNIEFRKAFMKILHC

dopamine D-1 receptor = dopamine D-1 receptor (Rattus norvegicus, UniProt P18901); assay: biochemical
Chain of dopamine D-1 receptor (P18901 whole entry): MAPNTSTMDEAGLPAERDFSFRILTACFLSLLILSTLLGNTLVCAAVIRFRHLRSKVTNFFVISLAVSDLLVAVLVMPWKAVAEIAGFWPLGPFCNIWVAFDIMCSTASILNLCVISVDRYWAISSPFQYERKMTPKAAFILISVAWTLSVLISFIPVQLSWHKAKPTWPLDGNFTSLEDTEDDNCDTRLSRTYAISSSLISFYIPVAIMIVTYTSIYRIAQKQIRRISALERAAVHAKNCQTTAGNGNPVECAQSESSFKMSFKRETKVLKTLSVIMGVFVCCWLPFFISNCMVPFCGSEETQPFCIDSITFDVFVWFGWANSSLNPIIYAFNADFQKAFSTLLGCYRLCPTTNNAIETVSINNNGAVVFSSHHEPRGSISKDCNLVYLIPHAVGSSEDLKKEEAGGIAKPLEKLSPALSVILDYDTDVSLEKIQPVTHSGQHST

[1] = tested on: striatal dopamine receptors; assay: animal or person; format: in vivo; details: Rattus norvegicus, sc, read-out: EC50, rotation behavior
[2] = goldfish retina or rat striatum homogenate

Oc1cc2c(cc1O)[C@H]1c3cc(-c4ccccc4)oc3CN[C@@H]1CC2 (relative stereo) [Example 42, trans-2-Phenyl-4,5,5a,6,7,11b-hexahydro-3-oxa-5-aza-cyclopent-1-ena[c]phenanthrene-9,10-diol hydrochloride]
EC50 (D-1 receptor): 78 nM | Intrinsic Activity (%) (D-1 receptor): 59% | Ki (dopamine D-2 receptor): 640 nM | Ki (dopamine D-1 receptor): 453 nM

CCCc1nc2c(s1)CN[C@@H]1CCc3cc(O)c(O)cc3[C@@H]21 (relative stereo) [Example 54, trans-2-propyl-4,5,5a,6,7,11b-hexahydro-1,5-diaza-3-thia-cyclopent-1-ena[c]phenanthrene-9,10-diol dihydrobromide]
Intrinsic Activity (%) (D-1 receptor): 67% | EC50 (D-1 receptor; [2]): 580 nM | Ki (dopamine D-2 receptor): > 5000 nM | Ki (dopamine D-1 receptor): 220 nM | ED50 [1]: 0.21 µmol/kg

CCCc1cc2c(s1)CNC1CCc3cc(OC(C)=O)c(OC(C)=O)cc3C21 (single isomer, unassigned; (-)) [Example 48, (-)-trans-9,10-Diacetyloxy-2-propyl-4,5,5a,6,7,11b-hexahydro-3-thia-5-aza-cyclopent-1-ena[c]phenanthrene hydrochloride]
ED50 [1]: 0.04 µmol/kg

CCCc1nc2c(o1)CN[C@@H]1CCc3cc(O)c(O)cc3[C@@H]21 (relative stereo) [Example 53, trans-2-propyl-4,5,5a,6,7,11b-hexahydro-1,5-diaza-3-oxa-cyclopent-1-ena[c]phenanthrene-9,10-diol dihydrobromide]
Intrinsic Activity (%) (D-1 receptor): 83% | EC50 (D-1 receptor; [2]): 1000 nM | Ki (dopamine D-2 receptor): 230 nM | Ki (dopamine D-1 receptor): 154 nM

CCCc1nc2c(s1)[C@H]1c3cc(O)c(O)cc3CC[C@@H]1NC2 (relative stereo) [Example 27, trans-2-propyl-4,5,5a,6,7,11b-hexahydro-1-thia-3,5-diaza-cyclopent-2-ena[c]phenanthrene-9,10-diol dihydrobromide]
Intrinsic Activity (%) (D-1 receptor): 93% | EC50 (D-1 receptor; [2]): 120 nM | Ki (dopamine D-2 receptor): 210 nM | Ki (dopamine D-1 receptor): 11 nM | ED50 [1]: > 1 µmol/kg

Oc1cc2c(cc1O)[C@H]1c3cc(CC4CCCC4)sc3CN[C@@H]1CC2 (relative stereo) [Example 39, trans-2-(Cyclopentylmethyl)-4,5,5a,6,7,11b-hexahydro-3-thia-5-aza-cyclopent-1-ena[c]phenanthrene-9,10-diol hydrobromide]
Intrinsic Activity (%) (D-1 receptor): 93% | EC50 (D-1 receptor; [2]): 110 nM | Ki (dopamine D-2 receptor): 1620 nM | Ki (dopamine D-1 receptor): 450 nM

CC(C)CCc1cc2c(s1)[C@@H]1c3cc(O)c(O)cc3CC[C@H]1NC2 (relative stereo) [Example 30, trans-2-(3-Methylbutyl)-4,5,5a,6,7,11b-hexahydro-1-thia-5-aza-cyclopent-2-ena[c]phenanthrene-9,10-diol hydrobromide]
Intrinsic Activity (%) (D-1 receptor): 70% | EC50 (D-1 receptor; [2]): 105 nM | Ki (dopamine D-2 receptor): 560 nM | Ki (dopamine D-1 receptor): 62 nM | ED50 [1]: > 1 µmol/kg

CCc1cc2c(s1)CN[C@H]1CCc3cc(O)c(O)cc3[C@H]21 (relative stereo) [Example 3, trans-2-ethyl-4,5,5a,6,7,11b-hexahydro-3-thia-5-aza-cyclopent-1-ena[c]phenanthrene-9,10-diol hydrobromide]
ED50 [1]: 0.077 µmol/kg

CCCCCCc1cc2c(s1)CN[C@@H]1CCc3cc(O)c(O)cc3[C@@H]21 (relative stereo) [Example 38, trans-2-Hexyl-4,5,5a,6,7,11b-hexahydro-3-thia-5-aza-cyclopent-1-ena[c]phenanthrene-9,10-diol TFA salt]
Intrinsic Activity (%) (D-1 receptor): 58% | EC50 (D-1 receptor; [2]): 285 nM | Ki (dopamine D-2 receptor): 2580 nM | Ki (dopamine D-1 receptor): 1430 nM

CC(C)(C)c1cc2c(s1)CN[C@H]1CCc3cc(O)c(O)cc3[C@H]21 (single isomer, unassigned) [Example 24, (-)-trans-2-(1,1-Dimethylethyl)-4,5,5a,6,7,11b-hexahydro-3-thia-5-aza-cyclopent-1-ena[c]-phenanthrene-9,10-diol]
ED50 [1]: 0.04 µmol/kg

2-propyl-4,5,5a,6,7,11b-hexahydro-1-thia-5-aza-cyc! opent-2-ena[c]phenanthrene-10-ol hydrobromide [Example 44]
agonist/antagonist properties at dopamine receptor (D-1 receptor; hydrobromide): no agonist properties; also recorded: dopamine antagonist

CC(C)c1cc2c(s1)[C@@H]1c3cc(O)c(O)cc3CC[C@H]1NC2 (relative stereo) [Example 34, trans-2-Isopropyl-4,5,5a,6,7,11b-hexahydro-1-thia-5-aza-cyclopent-2-ena[c]phenanthrene-9,10-diol trifluoroacetate salt]
EC50 (D-1 receptor): 16 nM | Intrinsic Activity (%) (D-1 receptor): 80% | Ki (dopamine D-2 receptor): 420 nM | Ki (dopamine D-1 receptor): 4 nM | ED50 [1]: 0.04 µmol/kg

Cc1cc2c(s1)CN[C@H]1CCc3cc(O)c(O)cc3[C@H]21 (relative stereo) [Example 22, trans-2-methyl-4,5,5a,6,7,11b-hexahydro-3-thia-5-aza-cyclopent-1-ena[c]phenanthrene-9,10-diol hydrobromide]
ED50 [1]: 0.2 µmol/kg

Cc1cc2c(s1)CN[C@H]1CCc3cc(O)c(O)cc3[C@H]21 (single isomer, unassigned) [Example 23, (-)-trans-2-Methyl-4,5,5a,6,7,11b-hexahydro-3-thia-5-aza-cyclopent-1-ena[c]-phenanthrene-9,10-diol]
ED50 [1]: 0.05 µmol/kg

CC(C)(C)c1cc2c(s1)CN[C@H]1CCc3cc(O)c(O)cc3[C@H]21 (relative stereo) [Example 6, trans-2-(1,1-dimethylethyl)-4,5,5a,6,7,11b-hexahydro-3-thia-5-aza-cyclopent-1-ena[c]phenanthrene-9,10-diol hydrobromide]
ED50 [1]: 0.12 µmol/kg

CCCc1cc2c(o1)CN[C@@H]1CCc3cc(O)c(O)cc3[C@@H]21 (relative stereo) [Example 41, trans-2-Propyl-4,5,5a,6,7,11b-hexahydro-3-oxa-5-aza-cyclopent-1-ena[c]phenanthrene-9,10-diol]
EC50 (D-1 receptor): 46 nM | Intrinsic Activity (%) (D-1 receptor): 87% | Ki (dopamine D-2 receptor): 600 nM | Ki (dopamine D-1 receptor): 21 nM | ED50 [1]: 0.07 µmol/kg

Oc1cc2c(cc1O)[C@H]1c3cc(-c4cccs4)sc3CN[C@@H]1CC2 (relative stereo) [Example 37, trans-2-(2-Thiophenyl)-4,5,5a,6,7,11b-hexahydro-3-thia-5-aza-cyclopent-1-ena[c]phenanthrene-9,10-diol hydrobromide]
Intrinsic Activity (%) (D-1 receptor): 65% | EC50 (D-1 receptor; [2]): 332 nM | Ki (dopamine D-2 receptor): 3190 nM | Ki (dopamine D-1 receptor): 710 nM

Oc1cc2c(cc1O)[C@H]1c3sc(C(F)(F)F)nc3CN[C@@H]1CC2 (relative stereo) [Example 28, trans-2-Trifluoromethyl-4,5,5a,6,7, 11b-hexahydro-1-thia-3,5-diaza-cyclopent-2-ena[c]phenanthrene-9,10-diol]
Intrinsic Activity (%) (D-1 receptor): 77% | EC50 (D-1 receptor; [2]): 202 nM | Ki (dopamine D-2 receptor): > 5000 nM | Ki (dopamine D-1 receptor): 52 nM | ED50 [1]: 0.4 µmol/kg

CCCc1cc2c(s1)CN[C@H]1CCc3cc(O)c(O)cc3[C@H]21 (single isomer, unassigned) [Example 20, (-)-trans-2-propyl-4,5,5a,6,7,11b-hexahydro-3-thia-5-aza-cyclopent-1-ena[c]phenanthrene-9,10-diol hydrobromide]
ED50 [1]: 0.11 µmol/kg

Cc1ccc(-c2cc3c(s2)CNC2CCc4cc(O)c(O)cc4C32)cc1 (stereo not shown) [Example 46, 2-(4-Methylphenyl)-4,5,5a,6,7,11b-hexahydro-3-thia-5-aza-cyclopent-1-ena[c]phenanthrene-9,10-diol hydrobromide]
Ki (dopamine D-2 receptor): > 5000 nM | Ki (dopamine D-1 receptor): > 5000 nM

CCc1cc2c(o1)[C@@H]1c3cc(O)c(O)cc3CC[C@H]1NC2 (relative stereo) [Example 55, trans-2-ethyl-4,5,5a,6,7,11b-hexahydro-1-oxa-5-aza-cyclopent-2-ena[c]phenanthrene-9,10-diol hydrochloride]
EC50 (D-1 receptor): 64 nM | Intrinsic Activity (%) (D-1 receptor): 92% | Ki (dopamine D-2 receptor): 368 nM | Ki (dopamine D-1 receptor): 10 nM | ED50 [1]: 0.17 µmol/kg

CCCc1cc2c(s1)CN[C@H]1CCc3cc(O)c(O)cc3[C@H]21 (relative stereo) [Example 5, trans-2-propyl-4,5,5a,6,7,11b-hexahydro-3-thia-5-aza-cyclopent-1-ena[c]phenanthrene-9,10-diol hydrobromide]
ED50 [1]: 0.15 µmol/kg

CCCc1csc2c1CN[C@@H]1CCc3cc(O)c(O)cc3[C@@H]21 (relative stereo) [Example 52, trans-3-propyl-4,5,5a,6,7,11b-hexahydro-1-thia-5-aza-cyclopent-2-ena[c]phenanthrene-9,10-diol hydrochloride]
ED50 [1]: 0.32 µmol/kg

Oc1cc2c(cc1O)[C@@H]1c3sc(-c4ccccc4)cc3CN[C@H]1CC2 (relative stereo) [Example 19, trans-2-phenyl-4,5,5a,6,7,11b-hexahydro-1-thia-5-aza-cyclopent-2-ena[c]phenanthrene-9,10-diol hydrobromide]
EC50 (D-1 receptor): 25 nM | Intrinsic Activity (%) (D-1 receptor): 79% | Ki (dopamine D-2 receptor): 750 nM | Ki (dopamine D-1 receptor): 360 nM

CCCc1nc2c(o1)[C@@H]1c3cc(O)c(O)cc3CC[C@H]1NC2 (relative stereo) [Example 29, trans-2-Propyl-4,5,5a,6,7,11b-hexahydro-1-oxa-3,5-diaza-cyclopent-2-ena[c]phenanthrene-9,10-diol dihydrobromide]
EC50 (D-1 receptor): 28 nM | Intrinsic Activity (%) (D-1 receptor): 81% | ED50 [1]: 0.41 µmol/kg

CCc1cc2c(s1)CN[C@H]1CCc3cc(O)c(O)cc3[C@H]21 (single isomer, unassigned) [Example 4, (-)-trans-2-ethyl-4,5,5a,6,7,11b-hexahydro-3-thia-5-aza-cyclopent-1-ena[c]phenanthrene-9,10-diol hydrobromide]
ED50 [1]: 0.04 µmol/kg

CC(C)(C)Cc1cc2c(s1)CN[C@H]1CCc3cc(O)c(O)cc3[C@H]21 (relative stereo) [Example 10, trans-2-(2,2-Dimethylpropyl)-4,5,5a,6,7,11b-hexahydro-3-thia-5-aza-cyclopent-1-ena[c]-phenanthrene-9,10-diol]
Intrinsic Activity (%) (D-1 receptor): 50% | EC50 (D-1 receptor; [2]): 216 nM | Ki (dopamine D-2 receptor): 4600 nM | Ki (dopamine D-1 receptor): 560 nM
